Reference: US20250230193A1, “CYCLIC COMPOUND HAVING SELECTIVE KRAS INHIBITORY EFFECT ON HRAS AND NRAS” (CHUGAI SEIYAKU KABUSHIKI KAISHA, priority 2022, published 2025)
*1 amine or outer side, *2 acyl side, *3 side chain or, on linkers, in order; H or OH if unused. Where a SMILES comes first, the peptide text is derived from it. Bridges are numbered along the chain shown (N, C = ends). [ ]: non-standard residue; d: D form. hPhe(3,5-F2-4-CF3) = N[C@@H](CCc1cc(F)c(C(F)(F)F)c(F)c1)C(=O)O; NPrPhe(4-CF3) = CCCN[C@@H](Cc1ccc(C(F)(F)F)cc1)C(=O)O; NMeGly(cPent) = CN[C@H](C(=O)O)C1CCCC1; X9 = C[C@@](N[*:1])(C(=O)[*:2])C1CC1; X13 = CCC[C@](C)(N[*:1])C(=O)[*:2]; αMeI = CC[C@H](C)[C@](C)(N)C(=O)O; NMeD = CN[C@@H](CC(=O)O)C(=O)O; NMeL = CN[C@@H](CC(C)C)C(=O)O; αMeL = CC(C)C[C@](C)(N)C(=O)O; αMeV = CC(C)[C@](C)(N)C(=O)O; Sar = CNCC(=O)O

What was measured:
[1] = target: GDP-bound HRAS wild-type protein (Homo sapiens, UniProt P01112); assay: Binding to HRAS by surface plasmon resonance (SPR), Single Cycle Kinetics; details: KD ratio HRAS/KRAS, SPR
[2] = target: GDP-bound NRAS wild-type protein (Homo sapiens, UniProt P01111); assay: Binding to NRAS by surface plasmon resonance (SPR), Single Cycle Kinetics; details: KD ratio NRAS/KRAS, SPR
Sequence of GDP-bound NRAS wild-type protein (P01111 whole entry): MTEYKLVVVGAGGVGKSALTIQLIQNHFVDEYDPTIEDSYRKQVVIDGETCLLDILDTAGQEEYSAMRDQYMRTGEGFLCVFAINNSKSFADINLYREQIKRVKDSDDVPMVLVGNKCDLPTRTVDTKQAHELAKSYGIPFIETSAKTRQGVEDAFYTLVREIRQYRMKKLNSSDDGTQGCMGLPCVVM

Sequence of GDP-bound HRAS wild-type protein (P01112 whole entry): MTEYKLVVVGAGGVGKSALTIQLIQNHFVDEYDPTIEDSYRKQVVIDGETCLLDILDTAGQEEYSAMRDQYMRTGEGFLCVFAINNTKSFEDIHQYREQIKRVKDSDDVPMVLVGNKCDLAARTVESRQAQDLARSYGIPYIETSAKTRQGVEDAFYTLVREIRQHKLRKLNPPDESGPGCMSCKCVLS

Row | Structure (SMILES) | HRAS/KRAS (ratio of KD value with respect to GDP-bound HRAS wild-type protein to KD value with respect to KRAS) [1] | NRAS/KRAS (ratio of KD value with respect to GDP-bound NRAS wild-type protein to KD value with respect to KRAS) [2]
1 | CC[C@H](C)[C@@H]1NC(=O)[C@H](CC)N(C)C(=O)C[C@@H](C(=O)N(C)C)N(CC)C(=O)[C@H](C2CCCC2)N(C)C(=O)C2(CCC2)NC(=O)[C@@H]2C[C@@H](N3CCC(F)(F)CC3)CN2C(=O)[C@H](CCc2cc(F)c(C(F)(F)F)c(F)c2)NC(=O)CN(C)C(=O)[C@H](Cc2ccc(C(F)(F)F)cc2)N2CCCC[C@@H](C2=O)N(C)C(=O)CN(C)C1=O [PP0733] | B (a compound having 3 or more and less than 10 is denoted as B) | B (a compound having 3 or more and less than 10 is denoted as B)
2 | CCCN1C(=O)CN(C)C(=O)CN(C)C(=O)[C@H]([C@@H](C)CC)NC(=O)[C@H](CC(C)C)N(C)C(=O)C[C@@H](C(=O)N(C)C)N(C)C(=O)[C@H](C2CCCC2)N(C)C(=O)[C@](C)(C2CC2)NC(=O)[C@@H]2CCCN2C(=O)[C@H](CCc2cc(F)c(C(F)(F)F)c(F)c2)NC(=O)CN(C)C(=O)[C@@H]1Cc1ccc(C(F)(F)F)cc1 [PP0734] ([NMeL]I[Sar][Sar][NPrPhe(4-CF3)][Sar][hPhe(3,5-F2-4-CF3)]P[X9][NMeGly(cPent)][NMeD]-NMe2; lactam N-11) | C (A compound having a KD ratio of 0.1 or more and less than 3 is denoted as C) | B (a compound having 3 or more and less than 10 is denoted as B)
3 | CCCN1C(=O)CN(C)C(=O)CN(C)C(=O)[C@H]([C@@H](C)CC)NC(=O)[C@H](CC(C)C)N(C)C(=O)C[C@@H](C(=O)N(C)C)N(C)C(=O)[C@H](C2CCCC2)N(C)C(=O)[C@](C)(C(C)C)NC(=O)[C@@H]2CCCN2C(=O)[C@H](CCc2cc(F)c(C(F)(F)F)c(F)c2)NC(=O)CN(C)C(=O)[C@@H]1Cc1ccc(C(F)(F)F)cc1 [PP0735] ([NMeL]I[Sar][Sar][NPrPhe(4-CF3)][Sar][hPhe(3,5-F2-4-CF3)]P[αMeV][NMeGly(cPent)][NMeD]-NMe2; lactam N-11) | C (A compound having a KD ratio of 0.1 or more and less than 3 is denoted as C) | B (a compound having 3 or more and less than 10 is denoted as B)
4 | CCCN1C(=O)CN(C)C(=O)CN(C)C(=O)[C@H]([C@@H](C)CC)NC(=O)[C@H](CC(C)C)N(C)C(=O)C[C@@H](C(=O)N(C)C)N(C)C(=O)[C@H](C2CCCC2)N(C)C(=O)[C@](C)([C@@H](C)CC)NC(=O)[C@@H]2CCCN2C(=O)[C@H](CCc2cc(F)c(C(F)(F)F)c(F)c2)NC(=O)CN(C)C(=O)[C@@H]1Cc1ccc(C(F)(F)F)cc1 [PP0736] ([NMeL]I[Sar][Sar][NPrPhe(4-CF3)][Sar][hPhe(3,5-F2-4-CF3)]P[αMeI][NMeGly(cPent)][NMeD]-NMe2; lactam N-11) | C (A compound having a KD ratio of 0.1 or more and less than 3 is denoted as C) | B (a compound having 3 or more and less than 10 is denoted as B)
5 | CCCN1C(=O)CN(C)C(=O)CN(C)C(=O)[C@H]([C@@H](C)CC)NC(=O)[C@H](CC(C)C)N(C)C(=O)C[C@@H](C(=O)N(C)C)N(C)C(=O)[C@H](C2CCCC2)N(C)C(=O)[C@](C)(CCC)NC(=O)[C@@H]2CCCN2C(=O)[C@H](CCc2cc(F)c(C(F)(F)F)c(F)c2)NC(=O)CN(C)C(=O)[C@@H]1Cc1ccc(C(F)(F)F)cc1 [PP0737] ([NMeL]I[Sar][Sar][NPrPhe(4-CF3)][Sar][hPhe(3,5-F2-4-CF3)]P[X13][NMeGly(cPent)][NMeD]-NMe2; lactam N-11) | C (A compound having a KD ratio of 0.1 or more and less than 3 is denoted as C) | B (a compound having 3 or more and less than 10 is denoted as B)
6 | CCCN1C(=O)CN(C)C(=O)CN(C)C(=O)[C@H]([C@@H](C)CC)NC(=O)[C@H](CC(C)C)N(C)C(=O)C[C@@H](C(=O)N(C)C)N(C)C(=O)[C@H](C2CCCC2)N(C)C(=O)[C@](C)(CC(C)C)NC(=O)[C@@H]2CCCN2C(=O)[C@H](CCc2cc(F)c(C(F)(F)F)c(F)c2)NC(=O)CN(C)C(=O)[C@@H]1Cc1ccc(C(F)(F)F)cc1 [PP0738] ([NMeL]I[Sar][Sar][NPrPhe(4-CF3)][Sar][hPhe(3,5-F2-4-CF3)]P[αMeL][NMeGly(cPent)][NMeD]-NMe2; lactam N-11) | B (a compound having 3 or more and less than 10 is denoted as B) | B (a compound having 3 or more and less than 10 is denoted as B)
